Experimental data from PubChem BioAssay AID1963839 (Molecular Pharmacology Branch, DTP, NCI, 2024).
pIC50: −log10 of the molar value.

System: 817829-284-R-J1-PDC complex spheroid viability
Assay: Anticancer human tumor 817829-284-R-J1-PDC patient-derived colon adenocarcinoma cell line growth inhibition [POLQ]
Conditions: for pIC50: curve of first compound; for viability, T/C: stronger effect = lower value
Summary of the method: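 Three-cell-type spheroids modelling solid tumor plus stroma served as the readout system; POL inhibitors were tested individually and in combination, concentration ranges set by clinical Cmax where known.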

[1] = second compound 0.0316 µM, first compound 0.0316 µM
[2] = second compound 0.0316 µM, first compound 0.1 µM
[3] = second compound 0.0316 µM, first compound 0.316 µM
[4] = second compound 0.0316 µM, first compound 1 µM
[5] = second compound 0.0316 µM, first compound 3.16 µM
[6] = second compound 0.0316 µM, first compound 10 µM
[7] = second compound 0.1 µM, first compound 0.0316 µM
[8] = second compound 0.1 µM, first compound 0.1 µM
[9] = second compound 0.1 µM, first compound 0.316 µM
[10] = second compound 0.1 µM, first compound 1 µM
[11] = second compound 0.1 µM, first compound 3.16 µM
[12] = second compound 0.1 µM, first compound 10 µM
[13] = second compound 0.316 µM, first compound 0.0316 µM
[14] = second compound 0.316 µM, first compound 0.1 µM
[15] = second compound 0.316 µM, first compound 0.316 µM
[16] = second compound 0.316 µM, first compound 1 µM
[17] = second compound 0.316 µM, first compound 3.16 µM
[18] = second compound 0.316 µM, first compound 10 µM
[19] = second compound 1 µM, first compound 0.0316 µM
[20] = second compound 1 µM, first compound 0.1 µM
[21] = second compound 1 µM, first compound 0.316 µM
[22] = second compound 1 µM, first compound 1 µM
[23] = second compound 1 µM, first compound 3.16 µM
[24] = second compound 1 µM, first compound 10 µM
[25] = second compound 3.16 µM, first compound 0.0316 µM
[26] = second compound 3.16 µM, first compound 0.1 µM
[27] = second compound 3.16 µM, first compound 0.316 µM
[28] = second compound 3.16 µM, first compound 1 µM
[29] = second compound 3.16 µM, first compound 3.16 µM
[30] = second compound 3.16 µM, first compound 10 µM
[31] = second compound 10 µM, first compound 0.0316 µM
[32] = second compound 10 µM, first compound 0.1 µM
[33] = second compound 10 µM, first compound 0.316 µM
[34] = second compound 10 µM, first compound 1 µM
[35] = second compound 10 µM, first compound 3.16 µM
[36] = second compound 10 µM, first compound 10 µM
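Also: spheroids exposed to compounds for 7 days.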
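For viability, T/C in this document: 100% = DMSO vehicle-treated spheroids.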

SMILES: COc1cccc2c1C(=O)c1c(O)c3c(c(O)c1C2=O)CC(O)(C(=O)CO)CC3OC1CC(N)C(O)C(C)O1 (stereo unspecified) + COC1C(OC(N)=O)C(O)C(Oc2ccc3c(O)c(NC(=O)c4ccc(O)c(CC=C(C)C)c4)c(=O)oc3c2C)OC1(C)C
- pIC50 (second compound 0.0316 µM): 6.96
- pIC50 (second compound 0.1 µM): > 7.50
- pIC50 (second compound 0.316 µM): > 7.50
- pIC50 (second compound 1 µM): 6.96
- pIC50 (second compound 3.16 µM): 6.84
- pIC50 (second compound 10 µM): > 7.50
- viability, T/C [1]: 17.6%
- viability, T/C [2]: 90.5%
- viability, T/C [3]: 5.53%
- viability, T/C [4]: 1.37%
- viability, T/C [5]: 0.16%
- viability, T/C [6]: 0.52%
- viability, T/C [7]: 16.5%
- viability, T/C [8]: 75.1%
- viability, T/C [9]: 6.74%
- viability, T/C [10]: 0.41%
- viability, T/C [11]: 0.25%
- viability, T/C [12]: 0.49%
- viability, T/C [13]: 14.3%
- viability, T/C [14]: 82%
- viability, T/C [15]: 7.31%
- viability, T/C [16]: 0.98%
- viability, T/C [17]: 0.19%
- viability, T/C [18]: 0.45%
- viability, T/C [19]: 22.7%
- viability, T/C [20]: 84.3%
- viability, T/C [21]: 6.03%
- viability, T/C [22]: 1.44%
- viability, T/C [23]: 0.19%
- viability, T/C [24]: 0.51%
- viability, T/C [25]: 21.1%
- viability, T/C [26]: 119%
- viability, T/C [27]: 6.03%
- viability, T/C [28]: 0.63%
- viability, T/C [29]: 0.27%
- viability, T/C [30]: 0.51%
- viability, T/C [31]: 15.7%
- viability, T/C [32]: 83.3%
- viability, T/C [33]: 5.98%
- viability, T/C [34]: 0.49%
- viability, T/C [35]: 0.31%
- viability, T/C [36]: 0.47%

SMILES: Nc1ccn(C2OC(CO)C(O)C2(F)F)c(=O)n1 (stereo unspecified) + COC1C(OC(N)=O)C(O)C(Oc2ccc3c(O)c(NC(=O)c4ccc(O)c(CC=C(C)C)c4)c(=O)oc3c2C)OC1(C)C
- pIC50 (second compound 0.0316 µM): > 7.50
- pIC50 (second compound 0.1 µM): > 7.50
- pIC50 (second compound 0.316 µM): > 7.50
- pIC50 (second compound 1 µM): > 7.50
- pIC50 (second compound 3.16 µM): > 7.50
- pIC50 (second compound 10 µM): > 7.50
- viability, T/C [1]: 5.87%
- viability, T/C [2]: 4.61%
- viability, T/C [3]: 5.48%
- viability, T/C [4]: 4.5%
- viability, T/C [5]: 3.65%
- viability, T/C [6]: 3.38%
- viability, T/C [7]: 5.96%
- viability, T/C [8]: 4.96%
- viability, T/C [9]: 5.53%
- viability, T/C [10]: 4.76%
- viability, T/C [11]: 3.8%
- viability, T/C [12]: 3.28%
- viability, T/C [13]: 5.1%
- viability, T/C [14]: 4.62%
- viability, T/C [15]: 5.85%
- viability, T/C [16]: 5.46%
- viability, T/C [17]: 3.59%
- viability, T/C [18]: 2.73%
- viability, T/C [19]: 4.99%
- viability, T/C [20]: 4.37%
- viability, T/C [21]: 5.56%
- viability, T/C [22]: 4.58%
- viability, T/C [23]: 4.04%
- viability, T/C [24]: 3.14%
- viability, T/C [25]: 4.75%
- viability, T/C [26]: 4.78%
- viability, T/C [27]: 5.45%
- viability, T/C [28]: 4.57%
- viability, T/C [29]: 3.73%
- viability, T/C [30]: 3.65%
- viability, T/C [31]: 6.16%
- viability, T/C [32]: 4.98%
- viability, T/C [33]: 5.43%
- viability, T/C [34]: 5.17%
- viability, T/C [35]: 4.49%
- viability, T/C [36]: 3.17%

SMILES: O=c1[nH]cc(F)c(=O)[nH]1 + COC1C(OC(N)=O)C(O)C(Oc2ccc3c(O)c(NC(=O)c4ccc(O)c(CC=C(C)C)c4)c(=O)oc3c2C)OC1(C)C
- pIC50 (second compound 0.0316 µM): 5.62
- pIC50 (second compound 0.1 µM): 5.05
- pIC50 (second compound 0.316 µM): 5.47
- pIC50 (second compound 1 µM): 5.53
- pIC50 (second compound 3.16 µM): 5.67
- pIC50 (second compound 10 µM): 5.05
- viability, T/C [1]: 97.6%
- viability, T/C [2]: 144%
- viability, T/C [3]: 102%
- viability, T/C [4]: 68.8%
- viability, T/C [5]: 42.6%
- viability, T/C [6]: 43.1%
- viability, T/C [7]: 90.7%
- viability, T/C [8]: 94%
- viability, T/C [9]: 92.5%
- viability, T/C [10]: 77.6%
- viability, T/C [11]: 50.2%
- viability, T/C [12]: 50%
- viability, T/C [13]: 80%
- viability, T/C [14]: 84.2%
- viability, T/C [15]: 70%
- viability, T/C [16]: 70.2%
- viability, T/C [17]: 51.1%
- viability, T/C [18]: 26.6%
- viability, T/C [19]: 98.3%
- viability, T/C [20]: 86.8%
- viability, T/C [21]: 95.1%
- viability, T/C [22]: 86.5%
- viability, T/C [23]: 47.2%
- viability, T/C [24]: 47.3%
- viability, T/C [25]: 128%
- viability, T/C [26]: 114%
- viability, T/C [27]: 108%
- viability, T/C [28]: 57.8%
- viability, T/C [29]: 50.4%
- viability, T/C [30]: 39.9%
- viability, T/C [31]: 107%
- viability, T/C [32]: 101%
- viability, T/C [33]: 77.9%
- viability, T/C [34]: 84.3%
- viability, T/C [35]: 62.3%
- viability, T/C [36]: 47.4%
